Reference: US9370522B2, “Heterocyclic compounds for the inhibition of PASK” (BioEnergenix, LLC, priority 2009, dated 2016)

Legend:
[1] = target: T1, PASK (Invitrogen) Kinase Domain (Homo sapiens, UniProt Q96RG2); test: PASK TR-FRET assay (Ulight-peptide, Eu chelate antibody); assay type: biochemical; conditions: TR-FRET 665 nm/615 nm, 2 hours at 25° C.
T1 construct: IC50 Kinase Domain; purchased Invitrogen
Source text: The aim of the FRET assay is to determine the inhibition potential of test compounds on targeted kinase. This assay platform provides a homogenous screening method for measuring kinase activity by quantitating the amount of phospho-substrate in solution following a kinase reaction.
In the presence of kinase and ATP, the Ulight-peptide is phosphorylated and captured by an anti-phospho-substrate antibody, which brings the Eu chelate donor and Ulight acceptor dyes into close proximity. Upon excitation at 340 nm, the Eu chelate transfers its energy to the Ulight dye, resulting in a fluorescent light emission at 665 nm.
Titration of Kinase at 1 mM ATP was achieved via the following protocol. After making serial three-fold dilutions of PASK (Invitrogen) in reaction buffer across the plate; 5 μl of kinase dilution and 5 μl substrate/ATP mix were added to the wells of the white Optiplate-384 (PerkinElmer). The contents of the plate were and incubated at RT for 1 h. The reaction was stopped by adding 5 μl of stop solution to each test well followed by mixing and incubation at RT for 10 minutes. 5 μl of detection mix (detection antibody diluted in detection buffer) was added; the contents of the plate were mixed and then incubated in the dark for 1 hour at RT. The signal was recorded at TR-FRET mode (665 nm/615 nm). The results were graphed to calculate the EC50.
Titration of ATP at the EC50 Concentration of Kinase to determine ATP Km,app. was performed using the following method. After making serial dilutions of ATP (Invitrogen), 5 μl of ATP dilution and 5 μl substrate/kinase mix were added to the wells of the white Optiplate-384 (PerkinElmer). The contents of the plate were and incubated at RT for 1 h. The reaction was stopped by adding 5 μl of stop solution to each test well followed by mixing and incubation at RT for 10 minutes. 5 μl of detection mix (detection antibody diluted in detection buffer) was added; the contents of the plate were mixed and then incubated in the dark for 1 hour at RT. The signal was recorded at TR-FRET mode (665 nm/615 nm). The results were graphed to calculate the EC50 as the ATP Km,app.
Compound screening was done via the following method. 10 mM stock solution of test compound in DMSO was prepared by dissolving test compound in DMSO at RT for 1 hour, and then sonicating at 100% output for 8 minutes. If compound is not soluble under this condition, it was diluted to 3 mM. Kinase reaction buffer was prepared containing 10 mM MgCl2, 50 mM HEPES, 1 mM EGTA, 0.01% TWEEN-20, 2 mM DTT. […] The signal was recorded at TR-FRET mode (665 nm/615 nm).

[2] = target: T2, hPASK (Full Length) (Homo sapiens, UniProt Q96RG2); test: Biochemical Assay for hPASK Activity (Kinase-Glo Luminescent Kinase Assay), full length; conditions: purified hPASK from insect cells, MBP substrate
T2 construct: made in house; host or cells: insect cells
Procedure: (§1) The assay for purified hPASK activity utilizes the Kinase-Glo Luminescent Kinase Assay (Promega), which quantifies the amount of ATP remaining in solution following kinase reaction. The assay is carried out in a 96-well plate format and is performed by adding a volume of Kinase-Glo Reagent (Promega, catalog #V3771) equal to the volume of solution in the well of a completed kinase reaction. Kinase-Glo reagent contains Luciferase and its substrate. After addition to a kinase reaction it allows to measure luminescence. The amount of ATP left in solution at the time of Kinase-Glo Plus addition is directly proportional to the luminescence that is measured in each well, and inversely correlated with kinase activity.
(§2) Purified hPASK from insect cells (0.02 μg) is added to a 50 μL reaction mix containing 40 mM Hepes (pH 7.0), 100 mM KCl, 5 mM MgCl2, 1 mM DTT and 1 ug of MBP protein. Inhibitory compounds are then added and the mixture is incubated for 10 min at 25° C. before adding 5 μL of ATP (at desired concentration). The reaction is allowed to proceed at 25° C. for 1 hour before adding 50 μL of Kinase-Glo reagent. The luminescence is measured as soon as 10 minutes after Kinase-Glo reagent is added.

[3] = target: T3, hPASK Kinase Domain (Homo sapiens, UniProt Q96RG2); test: Biochemical Assay for hPASK Activity (Kinase-Glo Luminescent Kinase Assay), kinase domain
T3 construct: made in house; host or cells: insect cells
Procedure: as §1, §2

[4] = target: T4, PASK (UniProt #Q96RG2; human recombinant N-terminal GST tagged construct, residues 879-1323) (Homo sapiens, UniProt Q96RG2); test: 33P-ATP radiometric PASK kinase assay (P81 phosphocellulose, scintillation counting); assay type: biochemical; conditions: Table 2, Myelin Basic Protein 20 μM, 120 min room temperature, average of all trials, read-out: IC50 Kinase Domain
T4 construct: N-terminal GST tagged construct, residues 879-1323; GST (N); made in house; host or cells: insect cells
Procedure: Purified PASK (UniProt #Q96RG2; human recombinant N-terminal GST tagged construct, residues 879-1323) from insect cells (final concentration 5 nM) is added to freshly prepared Base Reaction Buffer containing 20 mM Hepes (pH 7.5), 10 mM MgCl2, 1 mM EGTA, 0.02% Brij35, 0.02 mg/ml BSA, 0.1 mM Na3VO4, 2 mM DTT, 1% DMSO and Myelin Basic Protein (20 μM final). Test compounds in DMSO are then added and the mixture, followed by delivery of ^33P-ATP (specific activity 0.01 μCi/μl final) to initiate the reaction. The kinase reaction is incubated for 120 min at room temperature. The entire reaction mixture is washed through onto a P81 Phosphocellulose paper and washed three times for 10 minutes in 75 mM phosphoric acid and once in methanol prior to drying and scintillation counting. When the assay was repeated for a given compound, the activity data is based on the average of all trials.

[5] = Table 1, second part (Examples 33-59)

T2 sequence (Q96RG2 whole entry): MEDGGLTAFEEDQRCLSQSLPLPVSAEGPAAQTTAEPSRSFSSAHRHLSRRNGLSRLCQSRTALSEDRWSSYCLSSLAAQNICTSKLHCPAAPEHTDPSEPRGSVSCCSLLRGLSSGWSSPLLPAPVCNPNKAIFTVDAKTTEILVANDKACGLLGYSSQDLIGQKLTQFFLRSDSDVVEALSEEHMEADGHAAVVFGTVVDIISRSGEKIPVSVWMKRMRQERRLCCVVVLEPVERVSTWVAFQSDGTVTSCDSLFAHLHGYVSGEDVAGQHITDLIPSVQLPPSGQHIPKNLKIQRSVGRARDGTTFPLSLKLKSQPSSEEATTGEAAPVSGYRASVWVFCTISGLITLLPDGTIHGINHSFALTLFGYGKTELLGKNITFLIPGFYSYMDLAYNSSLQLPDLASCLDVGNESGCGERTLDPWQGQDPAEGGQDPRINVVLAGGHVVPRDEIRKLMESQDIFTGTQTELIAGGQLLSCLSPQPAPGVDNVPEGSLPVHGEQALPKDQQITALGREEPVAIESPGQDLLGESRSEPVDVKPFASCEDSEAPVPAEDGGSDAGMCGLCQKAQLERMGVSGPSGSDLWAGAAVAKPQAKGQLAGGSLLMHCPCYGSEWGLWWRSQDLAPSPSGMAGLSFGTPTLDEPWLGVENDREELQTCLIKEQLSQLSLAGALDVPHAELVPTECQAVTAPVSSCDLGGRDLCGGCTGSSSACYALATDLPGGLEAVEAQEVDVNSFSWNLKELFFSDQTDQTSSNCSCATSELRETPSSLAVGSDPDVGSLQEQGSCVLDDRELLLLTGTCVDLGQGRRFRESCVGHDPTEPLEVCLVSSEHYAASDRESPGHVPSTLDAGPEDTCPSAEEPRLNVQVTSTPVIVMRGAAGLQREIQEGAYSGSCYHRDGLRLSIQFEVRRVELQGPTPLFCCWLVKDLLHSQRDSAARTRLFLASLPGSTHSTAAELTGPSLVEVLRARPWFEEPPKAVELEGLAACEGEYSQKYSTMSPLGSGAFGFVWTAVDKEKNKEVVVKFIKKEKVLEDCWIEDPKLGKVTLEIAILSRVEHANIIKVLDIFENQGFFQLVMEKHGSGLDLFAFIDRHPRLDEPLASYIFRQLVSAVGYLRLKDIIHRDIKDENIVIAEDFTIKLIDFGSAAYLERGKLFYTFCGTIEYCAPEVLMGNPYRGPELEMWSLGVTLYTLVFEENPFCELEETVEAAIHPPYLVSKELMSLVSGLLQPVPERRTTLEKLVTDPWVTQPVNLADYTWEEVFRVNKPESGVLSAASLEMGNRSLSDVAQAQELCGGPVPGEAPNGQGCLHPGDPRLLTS
T1 sequence (Q96RG2 999-1251 limits assumed): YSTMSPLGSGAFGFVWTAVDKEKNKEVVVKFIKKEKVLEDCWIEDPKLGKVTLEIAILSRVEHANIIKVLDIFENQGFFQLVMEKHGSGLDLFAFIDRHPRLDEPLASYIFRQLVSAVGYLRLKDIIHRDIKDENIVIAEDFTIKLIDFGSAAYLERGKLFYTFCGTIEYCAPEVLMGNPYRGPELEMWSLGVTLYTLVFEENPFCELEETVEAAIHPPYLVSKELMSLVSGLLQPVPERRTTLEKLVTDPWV
T3 sequence (Q96RG2 999-1251 limits assumed): as above
T4 sequence (Q96RG2 879-1323, stated change not applied): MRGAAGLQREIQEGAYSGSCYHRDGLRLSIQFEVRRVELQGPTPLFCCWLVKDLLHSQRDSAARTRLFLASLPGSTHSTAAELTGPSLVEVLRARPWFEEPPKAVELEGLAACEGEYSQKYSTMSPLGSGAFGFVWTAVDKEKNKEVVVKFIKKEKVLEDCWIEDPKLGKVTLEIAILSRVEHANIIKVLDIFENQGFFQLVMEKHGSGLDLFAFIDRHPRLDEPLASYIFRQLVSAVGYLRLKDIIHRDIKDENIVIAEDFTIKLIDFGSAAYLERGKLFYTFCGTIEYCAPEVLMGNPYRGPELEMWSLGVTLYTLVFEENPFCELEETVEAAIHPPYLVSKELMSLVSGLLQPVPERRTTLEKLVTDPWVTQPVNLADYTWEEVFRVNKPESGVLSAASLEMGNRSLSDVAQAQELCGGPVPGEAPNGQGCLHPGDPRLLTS

SMILES: COc1ccc(-c2nc3cc(C(=O)O)ccc3cc2-c2ccccc2)cc1 [Example 60, 2-(4-Methoxyphenyl)-3-phenylquinoline-7-carboxylic acid]
- IC50 [1]: ≤ 10 µM

SMILES: CCOc1ccc(-c2nc3ccc(C(=O)O)cc3nc2-c2ccc(OCC)cc2)cc1 [Example 11, 2,3-Di-(4-ethoxyphenyl)quinoxaline-6-carboxylic acid]
- IC50 [2]: ≥ 10 µM
- IC50 ([3]; Table 1, first part): ≥ 10 µM

SMILES: O=C(O)c1ccc2nc(-c3ccccc3)c(-c3ccccc3)nc2c1 [Example 8, 2,3-Diphenylquinoxaline-6-carboxylic acid]
- IC50 [2]: ≤ 10 µM
- IC50 ([3]; Table 1, first part): ≤ 10 µM

SMILES: Cc1nc2cc(C(=O)O)c(O)cc2nc1-c1ccccc1 [Example 3, 7-Hydroxy-2-phenyl-3-methylquinoxaline-6-carboxylic acid]
- IC50 [2]: ≥ 10 µM
- IC50 ([3]; Table 1, first part): ≥ 10 µM

SMILES: Cc1ccc(-c2nc3ccc(C(=O)O)cc3nc2-c2ccc(C)cc2)cc1 [Example 7, 2,3-Di-(4-methylphenyl)quinoxaline-6-carboxylic acid]
- IC50 [2]: ≤ 10 µM
- IC50 ([3]; Table 1, first part): ≥ 10 µM

SMILES: COc1ccc(-c2cc3cc(C(=O)O)ccc3nc2-c2ccc(OC)cc2)cc1 [Example 61, 2,3-Bis(4-methoxyphenyl)quinoline-6-carboxylic acid]
- IC50 [1]: ≤ 10 µM

SMILES: O=C(O)c1ccc2nc(-c3cccc(O)c3)c(-c3cccc(O)c3)nc2c1 [Example 1, 2,3-Di-(3-hydroxyphenyl)quinoxaline-6-carboxylic acid]
- IC50 [2]: ≤ 10 µM
- IC50 ([3]; Table 1, first part): ≤ 10 µM

SMILES: O=C(O)c1cc2nc(-c3ccc4c(c3)OCO4)c(-c3ccc4c(c3)OCO4)nc2cc1O [Example 10, 2,3-Di-(3,4-methylenedioxyphenyl)quinoxaline-7-hydroxy-6-carboxylic acid]
- IC50 [2]: ≤ 10 µM
- IC50 ([3]; Table 1, first part): ≤ 10 µM

SMILES: CN(c1ccc(-c2nc3cc(C(=O)O)ccc3nc2-c2ccccc2)cc1)S(C)(=O)=O [Example 51, 3-(4-(N-Methylmethylsulfonamido)phenyl)-2-phenylquinoxaline-6-carboxylic acid]
- IC50 [3, 5]: ≤ 10 µM

SMILES: COc1ccc(-c2nc3cccc(C(=O)O)c3nc2-c2ccc(OC)cc2)cc1 [Example 58, 2,3-Bis(4-methoxyphenyl)quinoxaline-5-carboxylic acid]
- IC50 [3, 5]: ≤ 10 µM

SMILES: O=C(O)c1ccc2nc(-c3ccc(F)cc3)c(-c3ccc(F)cc3)nc2c1 [Example 5, 2,3-Di-(4-fluorophenyl)quinoxaline-6-carboxylic acid]
- IC50 [2]: ≤ 10 µM
- IC50 ([3]; Table 1, first part): ≥ 10 µM

SMILES: CC(C)S(=O)(=O)Nc1ccc(-c2nc3cc(C(=O)O)ccc3nc2-c2ccccc2)cc1 [Example 52, 3-(4-(Isopropylsulfonamido)phenyl)-2-phenylquinoxaline-6-carboxylic acid]
- IC50 [3, 5]: ≤ 10 µM
- IC50 [1]: ≤ 10 µM

SMILES: CC(C)(C)c1ccc(-c2nc3cc(C(=O)O)ccc3nc2-c2ccccc2)cc1 [Example 33, 3-(4-tert-Butylphenyl)-2-phenylquinoxaline-6-carboxylic acid]
- IC50 [3, 5]: ≤ 10 µM
- IC50 [4]: ≤ 10 µM
- IC50 [1]: ≤ 10 µM

SMILES: COc1ccc(-c2nc3ccc(C(=O)O)cc3nc2-c2ccc(OC)c(OC)c2)cc1OC [Example 4, 2,3-Di-(3,4-dimethoxyphenyl)quinoxaline-6-carboxylic acid]
- IC50 [2]: ≥ 10 µM
- IC50 ([3]; Table 1, first part): ≥ 10 µM

SMILES: O=C(O)c1ccc2nc(-c3ccccc3O)c(-c3ccccc3O)nc2c1 [Example 2, 2,3-Di-(2-hydroxyphenyl)quinoxaline-6-carboxylic acid]
- IC50 [2]: ≤ 10 µM
- IC50 ([3]; Table 1, first part): ≤ 10 µM

SMILES: COc1ccc(-c2nc3ccc(S(N)(=O)=O)cc3nc2-c2ccc(OC)cc2)cc1 [Example 53, 2,3-Bis(4-methoxyphenyl)quinoxaline-6-sulfonamide]
- IC50 [3, 5]: ≤ 10 µM

SMILES: O=C(O)c1ccc2nc(-c3ccco3)c(-c3ccco3)nc2c1 [Example 9, 2,3-Di-(2-furyl)quinoxaline-6-carboxylic acid]
- IC50 [2]: ≤ 10 µM
- IC50 ([3]; Table 1, first part): ≤ 10 µM
